The compounds below were run on SARS-CoV-2 strain USA-WA1/2020 (assay: microbe, parasite or virus in culture). Conditions: Severe acute respiratory syndrome coronavirus 2, HeLa-ACE2, 24 h, HeLa-ACE2 cells, SARS-CoV-2 infection, 24 h; bound printed in cell; read-out: EC50, uM (Hela).
Assay type: cell-based
`CO[C@@H]1C[C@@H](C(=O)N[C@@H](C[C@@H]2CCNC2=O)C(=O)COC(F)(F)F)N(C(=O)C(=O)Nc2ccccc2F)C1` [Compound 258, (2S,4R)-1-(2-((2-fluorophenyl)amino)-2-oxoacetyl)-4-methoxy-N-((S)-3-oxo-1-((S)-2-oxopyrrolidin-3-yl)-4-(trifluoromethoxy)butan-2-yl)pyrrolidine-2-carboxamide] was tested, and the EC50 was > 1 µM.

Same assay, conditions: Severe acute respiratory syndrome coronavirus 2, HeLa-ACE2, 24 h, HeLa-ACE2 cells, SARS-CoV-2 infection, 24 h; class symbols; read-out: EC50, uM (Hela)
Work on `CC1(C)[C@@H]2[C@@H](C(=O)N[C@@H](C[C@@H]3CCNC3=O)C(=O)COC(F)(F)F)N(C(=O)[C@H](O)C(F)(F)F)C[C@@H]21` [Compound 386, (1R,2S,5S)-6,6-dimethyl-N-((S)-3-oxo-1-((S)-2-oxopyrrolidin-3-yl)-4-(trifluoromethoxy)butan-2-yl)-3-((S)-3,3,3-trifluoro-2-hydroxypropanoyl)-3-azabicyclo[3.1.0]-hexane-2-carboxamide] yielded an EC50 of 0.05 to 0.2 µM. With `CC(C)C[C@H](NC(=O)C(=O)Nc1ccc2ccccc2c1)C(=O)N[C@@H](C[C@@H]1CCNC1=O)C(=O)COc1c(F)c(F)cc(F)c1F` [Compound 34, N1-((S)-4-methyl-1-oxo-1-(((S)-3-oxo-1-((S)-2-oxopyrrolidin-3-yl)-4-(2,3,5,6-tetrafluorophenoxy)butan-2-yl)amino)pentan-2-yl)-N2-(naphthalen-2-yl)oxalamide] the EC50 was 0.05 to 0.2 µM. In the case of `CC(C)C[C@H](NC(=O)C(=O)Nc1ccccc1OC(F)F)C(=O)N[C@@H](C[C@@H]1CCNC1=O)C(=O)COc1c(F)c(F)cc(F)c1F` [Compound 62, N1-(2-(difluoromethoxy)-phenyl)-N2-((S)-4-methyl-1-oxo-1-(((S)-3-oxo-1-((S)-2-oxopyrrolidin-3-yl)-4-(2,3,5,6-tetrafluorophenoxy)butan-2-yl)amino)pentan-2-yl)oxalamide], the EC50 is reported as < 0.05 µM. `CC(C)(C)C[C@H](NC(=O)C(=O)NC(C)(C)C)C(=O)N[C@@H](C[C@@H]1CCNC1=O)C(=O)COC(F)(F)F` [Compound 172, N1-(tert-butyl)-N2-((S)-4,4-dimethyl-1-oxo-1-(((S)-3-oxo-1-((S)-2-oxopyrrolidin-3-yl)-4-(trifluoromethoxy)butan-2-yl)amino)pentan-2-yl)oxalamide] was tested, and the EC50 was < 0.05 µM. With `CC(C)C[C@H](NC(=O)c1nc2ccccc2[nH]1)C(=O)N[C@@H](C[C@@H]1CCNC1=O)C(=O)COC(F)(F)F` [Compound 156, N-((S)-4-methyl-1-oxo-1-(((S)-3-oxo-1-((S)-2-oxopyrrolidin-3-yl)-4-(trifluoromethoxy)butan-2-yl)amino)pentan-2-yl)-1H-benzo[d]imidazole-2-carboxamide] the EC50 was < 0.05 µM. `CC(C)C[C@H](NC(=O)C(=O)Nc1c(F)cccc1F)C(=O)N[C@@H](C[C@@H]1CCNC1=O)C(=O)COc1c(F)c(F)cc(F)c1F` [Compound 47, N1-(2,6-difluorophenyl)-N2-((S)-4-methyl-1-oxo-1-(((S)-3-oxo-1-((S)-2-oxopyrrolidin-3-yl)-4-(2,3,5,6-tetrafluorophenoxy)butan-2-yl)amino)pentan-2-yl)oxalamide] was tested, and the EC50 was < 0.05 µM. With `CC(C)C[C@H](NC(=O)[C@H](O)C(C)C)C(=O)N[C@@H](C[C@@H]1CCNC1=O)C(=O)COC(F)(F)F` [Compound 355, (S)-2-((R)-2-hydroxy-3-methylbutanamido)-4-methyl-N-((S)-3-oxo-1-((S)-2-oxopyrrolidin-3-yl)-4-(trifluoromethoxy)butan-2-yl)pentanamide] the EC50 was 0.05 to 0.2 µM. `COc1ccccc1NC(=O)C(=O)N[C@@H](CC(C)C)C(=O)N[C@@H](C[C@@H]1CCNC1=O)C(=O)COc1c(F)c(F)cc(F)c1F` [Compound 112, N1-(2-methoxyphenyl)-N2-((S)-4-methyl-1-oxo-1-(((S)-3-oxo-1-((S)-2-oxopyrrolidin-3-yl)-4-(2,3,5,6-tetrafluorophenoxy)butan-2-yl)amino)pentan-2-yl)oxalamide] was tested, and the EC50 was 0.05 to 0.2 µM. With `COCC1(NC(=O)C(=O)N[C@@H](CC(C)C)C(=O)N[C@@H](C[C@@H]2CCNC2=O)C(=O)COC(F)(F)F)CC1` [Compound 262, Nl-(1-(methoxymethyl)-cyclopropyl)-N2-((S)-4-methyl-1-oxo-1-(((S)-3-oxo-1-((S)-2-oxopyrrolidin-3-yl)-4-(trifluoromethoxy)butan-2-yl)amino)pentan-2-yl)oxalamide] the EC50 was 0.05 to 0.2 µM. `CC1(C)[C@@H]2[C@@H](C(=O)N[C@@H](C[C@@H]3CCNC3=O)C(=O)COC(F)(F)F)N(C(=O)[C@H]3CCCO3)C[C@@H]21` [Compound 291, (1R,2S,5S)-6,6-dimethyl-N-((S)-3-oxo-1-((S)-2-oxopyrrolidin-3-yl)-4-(trifluoromethoxy)butan-2-yl)-3-((R)-tetrahydrofuran-2-carbonyl)-3-azabicyclo-[3.1.0]hexane-2-carboxamide] showed an EC50 of 0.05 to 0.2 µM. For `Cc1ccccc1NC(=O)C(=O)N[C@@H](CC(C)C)C(=O)N[C@@H](C[C@@H]1CCNC1=O)C(=O)COc1c(F)c(F)cc(F)c1F` [Compound 37, N1-((S)-4-methyl-1-oxo-1-(((S)-3-oxo-1-((S)-2-oxopyrrolidin-3-yl)-4-(2,3,5,6-tetrafluoro-phenoxy)butan-2-yl)amino)pentan-2-yl)-N2-(o-tolyl)oxalamide], the EC50 was < 0.05 µM. In the case of `O=C1NCC[C@H]1C[C@H](NC(=O)[C@@H]1[C@H]2CCC[C@H]2CN1C(=O)C1CC2(CC2)CO1)C(=O)COC(F)(F)F` (stereo partly drawn) [Compound 295, (1S,3aR,6aS)-N-((S)-3-oxo-1-((S)-2-oxopyrrolidin-3-yl)-4-(trifluoromethoxy)butan-2-yl)-2-(5-oxaspiro[2.4]heptane-6-carbonyl)octahydro-cyclopenta[c]pyrrole-1-carboxamide], the EC50 is reported as 0.05 to 0.2 µM.

Same assay, conditions: Severe acute respiratory syndrome coronavirus 2, HeLa-ACE2, 24 h, HeLa-ACE2 cells, SARS-CoV-2 infection, 24 h; read-out: EC50, uM (Hela)
In the case of `CN(C)S(=O)(=O)N(C)CC(=O)N1CC2(CC2)C[C@H]1C(=O)N[C@@H](C[C@@H]1CCNC1=O)C(=O)COC(F)(F)F` [Compound 693, (S)-5-(N-(N,N-dimethylsulfamoyl)-N-methylglycyl)-N-((S)-3-oxo-1-((S)-2-oxopyrrolidin-3-yl)-4-(trifluoromethoxy)butan-2-yl)-5-azaspiro[2.4]heptane-6-carboxamide], the EC50 is reported as 0.2 to 0.5 µM. With `[2H]C([2H])([2H])CCC(=O)N1CC2(CC2)C[C@H]1C(=O)N[C@@H](C[C@@H]1CCNC1=O)C(=O)COC(F)(F)F` [Compound 764, (S)-5-(butanoyl-4,4,4-d3)-N-((S)-3-oxo-1-((S)-2-oxopyrrolidin-3-yl)-4-(trifluoromethoxy)butan-2-yl)-5-azaspiro[2.4]heptane-6-carboxamide] the EC50 was 0.05 to 0.2 µM. Compound `CS(=O)(=O)NC/C=C/C[C@@H](O)C(=O)N1CC2(CC2)C[C@H]1C(=O)N[C@@H](C[C@@H]1CCNC1=O)C(=O)COC(F)(F)F` [Compound 675, (S)-5-((R,E)-2-hydroxy-6-(methylsulfonamido)hex-4-enoyl)-N-((S)-3-oxo-1-((S)-2-oxopyrrolidin-3-yl)-4-(trifluoromethoxy)butan-2-yl)-5-azaspiro[2.4]heptane-6-carboxamide] has an EC50 of 0.2 to 0.5 µM. `O=C(Nc1ccccc1F)C(=O)N[C@@H](Cc1ccc(F)c(F)c1)C(=O)N[C@@H](C[C@@H]1CCNC1=O)C(=O)COC(F)(F)F` [Compound 589, N1-((S)-3-(3,4-difluorophenyl)-1-oxo-1-(((S)-3-oxo-1-((S)-2-oxopyrrolidin-3-yl)-4-(trifluoromethoxy)butan-2-yl)amino)propan-2-yl)-N2-(2-fluorophenyl)oxalamide] showed an EC50 of 0.05 to 0.2 µM. `O=C1NCC[C@H]1C[C@H](NC(=O)[C@@H]1[C@H]2CCC[C@H]2CN1C(=O)[C@@H](O)c1ccccc1)C(=O)COC(F)(F)F` [Compound 417, (1S,3aR,6aS)-2-((S)-2-hydroxy-2-phenylacetyl)-N-((S)-3-oxo-1-((S)-2-oxopyrrolidin-3-yl)-4-(trifluoromethoxy)butan-2-yl)octahydrocyclo-penta[c]pyrrole-1-carboxamide] was tested, and the EC50 was < 0.05 µM. Work on `COc1ccccc1NC(=O)C(=O)N1CC2(CC2)C[C@H]1C(=O)N[C@@H](C[C@@H]1CCNC1=O)C(=O)COC(F)(F)F` [Compound 575, (S)-5-(2-((2-methoxyphenyl)-amino)-2-oxoacetyl)-N-((S)-3-oxo-1-((S)-2-oxopyrrolidin-3-yl)-4-(trifluoromethoxy)butan-2-yl)-5-azaspiro[2.4]-heptane-6-carboxamide] yielded an EC50 of 0.5 to 1 µM. `O=C1NCC[C@H]1C[C@H](NC(=O)[C@@H]1CC2(CC2)CN1C(=O)C(F)(F)c1ccccc1)C(=O)COC(F)(F)F` [Compound 616, (S)-5-(2,2-difluoro-2-phenylacetyl)-N-((S)-3-oxo-1-((S)-2-oxopyrrolidin-3-yl)-4-(trifluoromethoxy)butan-2-yl)-5-azaspiro[2.4]heptane-6-carboxamide] was tested, and the EC50 was < 0.05 µM. With `CC(C)(C)C[C@@H](O)C(=O)N1CC2(CC2)C[C@H]1C(=O)N[C@@H](C[C@@H]1CCNC1=O)C(=O)COC(F)(F)F` [Compound 658, (S)-5-((R)-2-hydroxy-4,4-dimethylpentanoyl)-N-((S)-3-oxo-1-((S)-2-oxopyrrolidin-3-yl)-4-(trifluoromethoxy)butan-2-yl)-5-azaspiro[2.4]heptane-6-carboxamide] the EC50 was < 0.05 µM. For `CC(C)(C)c1ccccc1NC(=O)C(=O)N1CC2(CC2)C[C@H]1C(=O)N[C@@H](C[C@@H]1CCNC1=O)C(=O)COC(F)(F)F` [Compound 613, (S)-5-(2-((2-(tert-butyl)phenyl)amino)-2-oxoacetyl)-N-((S)-3-oxo-1-((S)-2-oxopyrrolidin-3-yl)-4-(trifluoromethoxy)butan-2-yl)-5-azaspiro[2.4]heptane-6-carboxamide], the EC50 was < 0.05 µM.

Same assay, conditions: Severe acute respiratory syndrome coronavirus 2, HeLa-ACE2, 24 h; read-out: EC50, uM (Hela)
Work on `O=C1NCC[C@H]1C[C@H](NC(=O)[C@@H]1CC2(CC2)CN1C(=O)C(F)F)C(=O)COC(F)(F)F` [Compound 635, (S)-5-(2,2-difluoroacetyl)-N-((S)-3-oxo-1-((S)-2-oxopyrrolidin-3-yl)-4-(trifluoromethoxy)butan-2-yl)-5-azaspiro[2.4]heptane-6-carboxamide] yielded an EC50 of 0.05 to 0.2 µM.
